Test results reported in patent publication US20240261418A1, “SOS1 DEGRADING AGENT AND PREPARATION METHOD THEREFOR AND APPLICATION THEREOF” (SHANGHAI LEADINGTAC PHARMACEUTICAL CO. LTD., priority 2021, published 2024).

Molecular target: T1, SOS1 protein (Homo sapiens, UniProt Q07889)
T1 sequence (Q07889 1-1333): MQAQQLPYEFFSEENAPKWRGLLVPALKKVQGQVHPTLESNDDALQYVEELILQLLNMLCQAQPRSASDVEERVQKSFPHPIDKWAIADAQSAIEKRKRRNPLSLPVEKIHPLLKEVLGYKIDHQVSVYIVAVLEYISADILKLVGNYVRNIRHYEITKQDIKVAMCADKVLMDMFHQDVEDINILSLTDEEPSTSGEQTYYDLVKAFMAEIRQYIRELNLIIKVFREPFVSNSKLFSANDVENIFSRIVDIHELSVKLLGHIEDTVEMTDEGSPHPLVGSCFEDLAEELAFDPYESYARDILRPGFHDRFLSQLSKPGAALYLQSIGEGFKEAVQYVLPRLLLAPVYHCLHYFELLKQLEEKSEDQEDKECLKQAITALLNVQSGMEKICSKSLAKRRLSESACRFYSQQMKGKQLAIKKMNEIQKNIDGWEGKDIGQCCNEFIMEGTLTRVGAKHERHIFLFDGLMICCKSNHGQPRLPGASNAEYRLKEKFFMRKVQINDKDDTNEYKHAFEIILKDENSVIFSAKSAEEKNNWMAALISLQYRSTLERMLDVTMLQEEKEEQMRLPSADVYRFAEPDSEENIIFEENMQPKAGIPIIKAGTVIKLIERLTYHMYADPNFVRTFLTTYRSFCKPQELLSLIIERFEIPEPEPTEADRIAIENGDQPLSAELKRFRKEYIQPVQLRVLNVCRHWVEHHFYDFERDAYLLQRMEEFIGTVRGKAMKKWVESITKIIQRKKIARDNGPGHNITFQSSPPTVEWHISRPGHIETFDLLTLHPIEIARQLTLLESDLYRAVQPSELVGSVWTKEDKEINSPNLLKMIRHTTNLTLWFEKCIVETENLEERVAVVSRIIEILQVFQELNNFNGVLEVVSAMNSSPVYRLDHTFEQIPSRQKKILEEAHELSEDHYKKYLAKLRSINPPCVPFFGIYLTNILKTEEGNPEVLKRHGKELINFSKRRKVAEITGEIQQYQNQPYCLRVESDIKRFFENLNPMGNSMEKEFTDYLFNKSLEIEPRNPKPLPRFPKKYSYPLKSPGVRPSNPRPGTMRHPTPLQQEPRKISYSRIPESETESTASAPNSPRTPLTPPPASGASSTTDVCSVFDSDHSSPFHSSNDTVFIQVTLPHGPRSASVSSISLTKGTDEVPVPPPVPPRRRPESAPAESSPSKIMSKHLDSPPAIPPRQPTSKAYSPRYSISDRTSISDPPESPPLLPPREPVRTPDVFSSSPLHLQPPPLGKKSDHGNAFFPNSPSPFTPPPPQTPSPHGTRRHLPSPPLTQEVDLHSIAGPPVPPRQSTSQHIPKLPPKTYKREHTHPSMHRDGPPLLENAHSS
Assay: SOS1 degradation assay (Western blot) in DLD-1 cells
Assay type: cell-based
Set-up: host or cells: NCI-H358, A-427, SW-620, DLD-1 (human cancer cell lines)
Conditions: DLD-1 (KRAS G13D), 24 h
Experimental: Test Example 2: SOS1 Degradation Assay
The degradation of SOS1 by the compounds was investigated on KRAS G12C mutant human non-small cell lung cancer cells NCI-H358 (ATCC or Stem Cell Bank, Chinese Academy of Sciences), KRAS G12D mutant human lung cancer cells A-427 (ATCC), KRAS G12V mutant human colorectal adenocarcinoma cells SW-620 (ATCC), and KRAS G13D mutant human colorectal adenocarcinoma epithelial cells DLD-1 (ATCC). The specific procedures were as follows:
0.95 mL of cells were seeded into each well of a 24-well cell culture plate to achieve a cell density of 5×10^5 cells/well; the cell plate was incubated in an incubator at 37° C. with 5% CO2 overnight. Then 50 μL of the compound solution after dilution was added to each of the wells with the corresponding cells, so that the final concentration of the compound was in a range of 0.03-3000 nM. The final concentration of DMSO was 0.25%.
After dosing, the cell plate was incubated in an incubator at 37° C. with 5% CO2 for 24 h. The cell culture medium in the 24-well plate was removed, and the plate was washed twice with 1×PBS. 180 μL of RIPA (strong) lysis buffer (Beyotime, P0013B) supplemented with 1 mM phenylmethylsulfonyl fluoride, a protease inhibitor mixture (Beyotime, P1008), and a protease phosphatase inhibitor mixture (Beyotime, P1045) was added to lyse adherent NCI-H358 cells at the bottom of the cell culture plate. After the plate was left to stand on ice for 30 min, the protein lysate in each well was transferred to a 1.5 mL centrifuge tube and centrifuged at 15000 g for 20 min at 4° C. […] The concentration of total protein in the cell lysate supernatant was determined using the BCA Protein Quantification Kit (Tiangen, PA115-02). […]
The concentration of total protein in the cell lysate was determined by BCA. […] After the blocking, the PVDF membrane was incubated with an SOS1 primary antibody (Abcam, ab140621) at 4° C. overnight, washed with a TBST buffer (2.4 g of Tris, 8.8 g of NaCl, 1.5 mL of Tween 20, with pH adjusted to 7.4, with the volume brought to 1 L) for 30 min (10 min/time), incubated with a secondary antibody (Abcam, ab205718) at room temperature for 2 h, washed with a TBST buffer for 30 min (10 min/time), and finally incubated with Clarity Western ECL Substrate (BIO-RAD, 170-5061) for 5 min for luminescence and color development, and a chemiluminescence imaging system (Clinx, ChemiScope 6200 Touch) was used for color development and protein mapping. […] The gray correction value for each sample was calculated by the formula: gray correction value=(gray value of target protein/gray value of corresponding internal reference)×103. Then the degradation rate was calculated by comparing the gray correction value with the gray correction value of the control group. […]

| DC50 [nM] | Dmax [%] | Structure (SMILES) |
| --- | --- | --- |
| ≤ 50 | 80 to 100 | COc1cc2nc(C)nc(N[C@H](C)c3cc(-c4c(Cl)cccc4CN(C)C)cs3)c2cc1[C@H]1CC[C@H](C(=O)N2CCN(CC3CCC4(CC3)CCN(C(=O)c3ccc(Cl)c(N5CCC(=O)NC5=O)c3)CC4)CC2)CC1 [Example 1, 1-(2-chloro-5-(9-((4-((1R,4R)-4-(4-(((R)-1-(4-(2-chloro-6-((dimethylamino)methyl)phenyl)thien-2-yl)ethyl)amino)-7-methoxy-2-methylquinazolin-6-yl)cyclohexane-1-carbonyl)piperazin-1-yl)methyl)-3-azaspiro[5.5]undecane-3-carbonyl)phenyl)dihydropyrimidine-2,4(1H,3H)-dione] |
| ≤ 50 | 80 to 100 | COc1cc2nc(C)nc(N[C@H](C)c3cc(-c4c(Cl)cccc4CN(C)C)cs3)c2cc1[C@H]1CC[C@H](C(=O)N2CCC(CCOCC3CCN(C(=O)c4ccc(Cl)c(N5CCC(=O)NC5=O)c4)CC3)CC2)CC1 [Example 5, 1-(2-chloro-5-(4-((2-(1-((1R,4R)-4-(4-(((R)-1-(4-(2-chloro-6-((dimethylamino)methyl)phenyl)thien-2-yl)ethyl)amino)-7-methoxy-2-methylquinazolin-6-yl)cyclohexane-1-carbonyl)piperidin-4-yl)ethoxy)methyl)piperidine-1-carbonyl)phenyl)dihydropyrimidine-2,4(1H,3H)-dione] |
